Measured values as given in US9662314B2, “Compounds and methods for the treatment of muscular disease, and related screening methods” (Tufts Medical Center, Inc., priority 2011, dated 2017).

Columns and labels:
[1] = system: vascular endothelial growth factor (VEGF); details: Jeong et al. 2011; cited from earlier work
[2] = system: glucose transporter 1 (GLUT-1); details: Jeong et al. 2011; cited from earlier work
[3] = system: splicing factor hnRNP L; details: U2OS cells, most up-regulated protein (Kang et al. 2006); cited from earlier work
[4] = system: Smooth mutant Drosophila flies (sm homozygotes, that develop muscle dystrophy); experiment: Survival of adult smooth mutant Drosophila flies treated with ascochlorin (FIG. 1); type: in vivo; details: adult sm homozygote flies on paper discs, 1 mM solution in 9% sucrose, 10% ethanol, throughout lifespan, vs vehicle alone
Description: Smooth mutant Drosophila flies (sm homozygotes, that develop muscle dystrophy) were maintained on paper discs soaked either with ascochlorin (Santa Cruz Biotechnology, 1 mM solution in 9% sucrose, 10% ethanol), or with vehicle alone. The treatment was maintained throughout the lifespan of the organism. Unaffected control siblings (sm heterozygotes) were maintained on vehicle. The number of dead flies was recorded daily, and percent survival was plotted as a function of time in days.

[5] = system: mammary carcinoma; details: intraperitoneal administration, murine mammary carcinoma (Nakajima et al., 2007); cited from earlier work
[6] = literature statement; cited from earlier work
[7] = system: BIN1; details: U2OS cells, third most up-regulated protein (Kang et al. 2006); cited from earlier work
[8] = system: human osteosarcoma cells (U2OS); details: proteome analysis (Kang et al. 2006); cited from earlier work

SMILES: COc1c(Cl)c(C)c(C=O)c(O)c1C/C=C(C)/C=C/[C@@]1(C)[C@H](C)CCC(=O)[C@@H]1C [MAC, 4-O-methylascochlorin]
- expression of VEGF [1]: increases the expression
- expression of GLUT-1 [2]: increases the expression

SMILES: CC(/C=C/[C@@]1(C)[C@H](C)CCC(=O)[C@@H]1C)=C\Cc1c(O)c(Cl)c(C)c(C=O)c1O [ascochlorin]
- hnRNP L up-regulation [3]: 12 ×
- survival time [4]: prolonged survival time
- cancer growth [5]: significantly suppressed cancer growth
- survival [5]: prolonged survival
- toxicity [6]: non-toxic
- BIN1 up-regulation [7]: 10 ×
- increase in the levels of three proteins [8]: ≥ 10 fold

SMILES: C/C(=C\Cc1c(O)c(Cl)c(C)c(C=O)c1O)CC/C=C(\C)[C@@H]1CC(=O)C(C)(C)O1 [ascofuranone]
- toxicity [6]: non-toxic
